PubChem BioAssay (NCI)
Several values for one entry are separate records, joined by “and”; a condition that tells them apart may be missing. Equal entries are not always repeated.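 A five-concentration, 48-hour dose response in 96-well plates underlies each endpoint, interpolated linearly between surrounding concentrations. GI50: concentration for 50% inhibition of growth. TGI: concentration producing complete growth inhibition.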

Key:
Assay in all cases: inhibition of tumour cell growth, NCI panel, 48 h
[1] = test system: A549 NSCLC
[2] = test system: SK-MEL-28 melanoma
[3] = test system: HCT-15 colon
[4] = test system: A498 renal
[5] = test system: DU-145 prostate
[6] = test system: KM12 colon
[7] = test system: COLO 205 colon
[8] = test system: SK-MEL-5 melanoma
[9] = test system: ACHN renal
[10] = test system: MALME-3M melanoma
[11] = test system: LOX IMVI melanoma
[12] = test system: BT-549 breast
[13] = test system: SN12C renal
[14] = test system: HS 578T breast
[15] = test system: SK-MEL-2 melanoma
[16] = test system: SF-295 CNS
[17] = test system: HOP-92 NSCLC
[18] = test system: MOLT-4 leukemia
[19] = test system: HT29 colon
[20] = test system: RPMI-8226 leukemia
[21] = test system: HCT-116 colon
[22] = test system: SF-268 CNS
[23] = test system: U251 CNS
[24] = test system: PC-3 prostate
[25] = test system: IGROV1 ovarian
[26] = test system: MDA-MB-231 breast
[27] = test system: HL-60(TB) leukemia
[28] = test system: NCI/ADR-RES ovarian
[29] = test system: HOP-62 NSCLC
[30] = test system: OVCAR-4 ovarian
[31] = test system: MCF7 breast
[32] = test system: RXF 393 renal
[33] = test system: M14 melanoma
[34] = test system: SNB-19 CNS
[35] = test system: SR leukemia
[36] = test system: NCI-H522 lung
[37] = test system: OVCAR-5 ovarian
[38] = test system: SF-539 CNS
[39] = test system: SK-OV-3 ovarian
[40] = test system: TK-10 renal
[41] = test system: CAKI-1 renal
[42] = test system: NCI-H23 lung
[43] = test system: NCI-H460 lung
[44] = test system: UACC-62 melanoma
[45] = test system: OVCAR-3 ovarian
[46] = test system: HCC-2998 colon
[47] = test system: SW-620 colon
[48] = test system: OVCAR-8 ovarian
[49] = test system: EKVX NSCLC
[50] = test system: MDA-MB-435
[51] = test system: K-562 leukemia
[52] = test system: UACC-257 melanoma
[53] = test system: CCRF-CEM leukemia
[54] = test system: 786-0 renal
[55] = test system: NCI-H226 lung
[56] = test system: UO-31 renal
[57] = test system: T-47D breast

Question: Which results are given for COc1ccc(-c2cc(=O)oc3ccc(Cl)cc23)cc1F?
Answer: GI50 [1]: 268 nM and 105 nM; TGI [1]: > 100 µM; GI50 [2]: 1710 nM and 3050 nM; TGI [2]: > 100 µM; GI50 [3]: 53.7 nM and 46.3 nM; TGI [3]: 10.4 µM; GI50 [4]: 103 nM and 47.1 nM; TGI [4]: 790 nM and 5170 nM; GI50 [5]: 255 nM and 261 nM; TGI [5]: 4.16 µM and 27.3 µM; GI50 [6]: 71.2 nM and 52.4 nM; TGI [6]: 11 µM; GI50 [7]: 146 nM and 85.3 nM; TGI [7]: 1090 nM and 896 nM; GI50 [8]: 140 nM and 71.7 nM; TGI [8]: 835 nM and 2350 nM; TGI [9]: > 100 µM; GI50 [10]: 59.2 µM; TGI [10]: > 100 µM; GI50 [11]: 186 nM and 69.5 nM; TGI [11]: > 100 µM; GI50 [12]: 303 nM and 66.5 nM; TGI [12]: 6.62 µM; TGI [13]: > 100 µM; GI50 [14]: 181 nM and 75.4 nM; TGI [14]: 68.9 µM; GI50 [15]: 212 nM and 38.5 nM; TGI [15]: 2680 nM; GI50 [16]: 84.5 nM and 36.7 nM; TGI [16]: 14.2 µM; TGI [17]: 7.94 µM; GI50 [18]: 310 nM and 57.1 nM; TGI [18]: > 100000 nM; GI50 [19]: 53.8 nM and 39.7 nM; TGI [19]: 336 nM; GI50 [20]: 297 nM and 106 nM; TGI [20]: > 100 µM; GI50 [21]: 91.3 nM and 44.7 nM; TGI [21]: 3.63 µM and 10.7 µM; GI50 [22]: 616 nM and 302 nM; TGI [22]: > 100 µM; GI50 [23]: 331 nM and 51.9 nM; TGI [23]: 12.6 µM; GI50 [24]: 274 nM and 79.7 nM; TGI [24]: > 100 µM; GI50 [25]: 1160 nM and 683 nM; TGI [25]: > 100000 nM; TGI [26]: > 100 µM; GI50 [27]: 129 nM and 33.9 nM; TGI [27]: 908 nM and 480 nM; GI50 [28]: 44.2 nM and 47.8 nM; GI50 [29]: 208 nM and 188 nM; TGI [29]: 27.3 µM; GI50 [30]: 1030 nM and 5590 nM; TGI [30]: > 100000 nM; GI50 [31]: 78.5 nM and 46.8 nM; TGI [31]: 18.6 µM; GI50 [32]: 141 nM and 233 nM; GI50 [33]: 51.9 nM and 42.3 nM; TGI [33]: > 100 µM; GI50 [34]: 350 nM and 74.4 nM; TGI [34]: > 100 µM; GI50 [35]: 42.6 nM; GI50 [36]: 34.9 nM and 21.8 nM; GI50 [37]: 633 nM and 1260 nM; TGI [37]: > 100 µM; GI50 [38]: 126 nM and 47.5 nM; TGI [38]: 733 nM and 479 nM; GI50 [39]: 384 nM and 209 nM; TGI [39]: > 100 µM; GI50 [40]: 435 nM; TGI [40]: 79.6 µM; TGI [41]: > 100 µM; GI50 [42]: 302 nM and 413 nM; TGI [42]: 96 µM; GI50 [43]: 167 nM and 49.9 nM; TGI [43]: 21.8 µM; GI50 [44]: 37.7 nM and 40.6 nM; TGI [44]: > 100 µM; GI50 [45]: 50.2 nM and 37.9 nM; TGI [45]: 497 nM and 345 nM; GI50 [46]: 590 nM and 243 nM; TGI [46]: 30.2 µM; GI50 [47]: 53 nM and 43.1 nM; TGI [47]: > 100 µM; GI50 [48]: 490 nM and 327 nM; TGI [48]: > 100 µM; GI50 [49]: 509 nM and 362 nM; TGI [49]: > 100 µM; GI50 [50]: 23.3 nM and 20 nM; TGI [50]: 67.5 nM and 53.1 nM; GI50 [51]: 43.5 nM and 40.1 nM; GI50 [52]: 23.2 µM; TGI [52]: > 100000 nM; GI50 [53]: 222 nM and 59.9 nM; TGI [53]: > 100000 nM; GI50 [54]: 366 nM and 87.7 nM; TGI [54]: > 100 µM; GI50 [55]: 705 nM and 3940 nM; TGI [55]: > 100000 nM; GI50 [56]: 755 nM and 1200 nM; TGI [56]: > 100 µM

Question: For COc1ccc2c(NCCCCCCCCNc3c4ccccc4nc4cc(OC)ccc34)c3ccccc3nc2c1, which GI50 [4] is on record?
Answer: 129 nM

Question: What about the TGI [4] of the same compound?
Answer: 437 nM

Question: And the GI50 [5]?
Answer: 49.8 nM

Question: What about the TGI [5] of the same compound?
Answer: 0.339 µM

Question: And the GI50 [15]?
Answer: 162 nM

Question: And the TGI [15]?
Answer: 358 nM

Question: What about the GI50 [17] of the same compound?
Answer: 1240 nM

Question: And the TGI [17]?
Answer: 2.58 µM

Question: And the GI50 [18]?
Answer: 54.6 nM

Question: And the TGI [18]?
Answer: 2320 nM

Question: And the GI50 [57]?
Answer: 50.8 nM

Question: What about the TGI [57] of the same compound?
Answer: 295 nM

Question: What about the TGI [25] of the same compound?
Answer: 108 nM

Question: What about the GI50 [27] of the same compound?
Answer: 363 nM

Question: And the TGI [27]?
Answer: 2130 nM

Question: What about the GI50 [29] of the same compound?
Answer: 65.8 nM

Question: And the TGI [29]?
Answer: 0.318 µM

Question: What about the GI50 [30] of the same compound?
Answer: 93.8 nM

Question: What about the TGI [30] of the same compound?
Answer: 446 nM

Question: What about the GI50 [31] of the same compound?
Answer: 27.9 nM

Question: And the TGI [31]?
Answer: 0.192 µM

Question: What about the GI50 [32] of the same compound?
Answer: 117 nM

Question: And the TGI [32]?
Answer: 332 nM

Question: And the GI50 [36]?
Answer: 11 nM

Question: And the TGI [36]?
Answer: 187 nM

Question: And the GI50 [40]?
Answer: 126 nM

Question: And the TGI [40]?
Answer: 0.763 µM

Question: And the GI50 [46]?
Answer: 71.8 nM

Question: What about the TGI [46] of the same compound?
Answer: 0.254 µM

Question: What about the GI50 [51] of the same compound?
Answer: 52.9 nM

Question: What about the TGI [51] of the same compound?
Answer: 300 nM

Question: And the GI50 [52]?
Answer: 0.221 µM

Question: And the TGI [52]?
Answer: 1070 nM

Question: What about the GI50 [53] of the same compound?
Answer: 25.3 nM

Question: What about the TGI [53] of the same compound?
Answer: 431 nM

Question: What about the GI50 [55] of the same compound?
Answer: 128 nM

Question: And the TGI [55]?
Answer: 961 nM

Question: What about the GI50 [56] of the same compound?
Answer: 48.8 nM

Question: And the TGI [56]?
Answer: 0.223 µM

Question: For CCOC(=O)/C=C(/N=P(c1ccccc1)(c1ccccc1)c1ccccc1)C(F)(F)F, which TGI [57] is on record?
Answer: > 100000 nM

Question: What about the TGI [36] of the same compound?
Answer: > 100000 nM

Question: What about the TGI [39] of the same compound?
Answer: > 100 µM

Question: And the TGI [46]?
Answer: > 100 µM

Question: And the TGI [56]?
Answer: > 100 µM
